We go through 20 compounds from patent US12570659B2, “Bicyclic heteroaryl compounds useful as IRAK4 inhibitors” (BRISTOL-MYERS SQUIBB COMPANY, priority 2019, dated 2026).

Bounds are passed on as bounds.

Test [1] deals with JAK3 kinase (Homo sapiens (Human), UniProt P52333). Nature of the test: JAK3 Homogeneous Time Resolved Fluorescence (HTRF) Assay. Conditions: for IC50: competition binding with fluorescein-labeled ATP competitive probe; for Ratio of JAK3 IC50 to IRAK4 IC50: selectivity for IRAK4 over JAK3. The class given is binding. The procedure: JAK3 Homogeneous Time Resolved Fluorescence (HTRF) Assay
A time resolved FRET-based competition binding assay was used to assess test article binding to JAK3 kinase. His-tagged or GST-tagged kinase at a concentration of 1 nM was incubated with 0.2 nM Tb-labeled detection antibody (anti-His or anti-GST), test compound, and fluorescein-labeled ATP competitive probe at a concentration corresponding to the probe's equilibrium dissociation constant for one hour. Fluorescence at 495 nm and 520 nm was measured using an EnVision microplate reader to quantify FRET between Tb-labeled detection antibody and fluorescein-labeled probe. Background subtracted FRET ratios were normalized to the maximum signal obtained in the absence of test compound. These values were converted to a percent inhibition. Percent inhibition was determined for test compounds at 11 concentrations. The IC50, defined as the concentration of the competing test compound needed to reduce specific binding of the probe by 50%, was calculated using the 4 parameter logistic equation to fit the data.

Test [2] has as its target IRAK4 (Homo sapiens (Human), UniProt Q9NWZ3). Nature of the test: IRAK4 Inhibition Assay. The class given is biochemical. To be noted: ATP 500 μM; IRAK4 0.6 nM; 60 min room temperature. The procedure:
IRAK4 Inhibition Assay The assays were performed in U-bottom 384-well plates. […] The reaction was initiated by the combination of IRAK4 with substrates and test compounds. The reaction mixture was incubated at room temperature for 60 min. and terminated by adding 45 μL of 35 mM EDTA to each sample. The reaction mixture was analyzed on the Caliper LABCHIP® 3000 (Caliper, Hopkinton, MA) by electrophoretic separation of the fluorescent substrate and phosphorylated product. Inhibition data were calculated by comparison to no enzyme control reactions for 100% inhibition and vehicle-only reactions for 0% inhibition.

Sequence of IRAK4 (Q9NWZ3 whole entry, species assumed): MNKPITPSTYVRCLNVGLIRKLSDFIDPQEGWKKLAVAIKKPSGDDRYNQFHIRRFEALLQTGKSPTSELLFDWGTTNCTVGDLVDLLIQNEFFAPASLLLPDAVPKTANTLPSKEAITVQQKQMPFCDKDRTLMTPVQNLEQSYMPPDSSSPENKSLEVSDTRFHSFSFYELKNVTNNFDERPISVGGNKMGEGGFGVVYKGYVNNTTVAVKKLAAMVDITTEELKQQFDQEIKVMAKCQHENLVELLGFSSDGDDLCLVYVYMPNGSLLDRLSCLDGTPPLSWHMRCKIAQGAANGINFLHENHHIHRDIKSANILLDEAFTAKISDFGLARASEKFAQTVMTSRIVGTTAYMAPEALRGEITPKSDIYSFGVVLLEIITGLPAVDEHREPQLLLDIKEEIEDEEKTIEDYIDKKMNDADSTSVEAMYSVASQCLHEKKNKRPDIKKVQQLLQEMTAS
Sequence of JAK3 kinase (P52333 whole entry): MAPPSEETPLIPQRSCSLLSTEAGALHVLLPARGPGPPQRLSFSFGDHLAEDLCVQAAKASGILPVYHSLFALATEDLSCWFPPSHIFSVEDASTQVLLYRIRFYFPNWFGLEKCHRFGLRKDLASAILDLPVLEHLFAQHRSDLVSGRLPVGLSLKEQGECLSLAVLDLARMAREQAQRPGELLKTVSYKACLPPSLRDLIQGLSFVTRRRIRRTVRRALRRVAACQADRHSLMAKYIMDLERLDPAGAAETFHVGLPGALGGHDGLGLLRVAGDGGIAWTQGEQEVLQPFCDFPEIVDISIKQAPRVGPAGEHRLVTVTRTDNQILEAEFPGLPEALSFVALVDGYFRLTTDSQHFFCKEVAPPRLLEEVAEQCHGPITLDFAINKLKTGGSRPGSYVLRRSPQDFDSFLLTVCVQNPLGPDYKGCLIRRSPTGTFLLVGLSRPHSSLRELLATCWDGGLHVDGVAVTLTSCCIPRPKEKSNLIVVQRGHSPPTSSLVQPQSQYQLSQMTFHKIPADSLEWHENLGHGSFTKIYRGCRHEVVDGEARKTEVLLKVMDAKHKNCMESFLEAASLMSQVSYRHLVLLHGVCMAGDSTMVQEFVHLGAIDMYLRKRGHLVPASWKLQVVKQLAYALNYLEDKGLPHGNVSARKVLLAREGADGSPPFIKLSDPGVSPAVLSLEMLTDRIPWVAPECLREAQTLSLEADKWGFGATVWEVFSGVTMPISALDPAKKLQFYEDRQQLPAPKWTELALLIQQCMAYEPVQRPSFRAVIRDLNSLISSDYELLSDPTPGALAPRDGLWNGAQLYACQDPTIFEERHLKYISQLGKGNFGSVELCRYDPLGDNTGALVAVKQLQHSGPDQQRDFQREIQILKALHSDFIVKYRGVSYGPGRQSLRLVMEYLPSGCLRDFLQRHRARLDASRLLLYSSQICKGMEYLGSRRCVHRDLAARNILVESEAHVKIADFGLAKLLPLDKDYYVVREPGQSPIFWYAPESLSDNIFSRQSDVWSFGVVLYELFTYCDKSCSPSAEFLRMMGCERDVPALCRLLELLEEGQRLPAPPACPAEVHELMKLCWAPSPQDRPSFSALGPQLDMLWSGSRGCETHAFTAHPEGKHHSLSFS

For the compound `CC(C)(O)[C@H](F)CNC(=O)c1cnc2cc(-c3cccnc3)nn2c1NCC(F)F` [Example 129, (R)-7-((2,2-difluoroethyl)amino)-N-(2-fluoro-3-hydroxy-3-methylbutyl)-2-(pyridin-3-yl) pyrazolo[1,5-a]pyrimidine-6-carboxamide], in test [1], the IC50 is over 10000 nM and the “Ratio of JAK3 IC50 to IRAK4 IC50” value is over 33. Besides, the IC50 in test [2] was 300 nM.
`CC(C)Nc1c(C(=O)NC[C@@H](F)C(C)(C)O)cnn2cc(-n3ncc4cncnc43)cc12` [Example 37, (R)—N-(2-fluoro-3-hydroxy-3-methylbutyl)-4-(isopropylamino)-6-(1H-pyrazolo[3,4-d]pyrimidin-1-yl)pyrrolo[1,2-b]pyridazine-3-carboxamide]: in test [1], the IC50 was over 50000 nM and the “Ratio of JAK3 IC50 to IRAK4 IC50” value is given as over 13158. Moreover, in test [2], the concentration for half-maximal inhibition (IC50) was 3.8 nM.
For `CC(C)Nc1c(C(=O)NC[C@@H](F)C(C)(C)O)cnc2cc(-c3ccncc3)nn12` [Example 122, (R)—N-(2-fluoro-3-hydroxy-3-methylbutyl)-7-(isopropylamino)-2-(pyridin-4-yl)pyrazolo[1,5-a] pyrimidine-6-carboxamide] the same measures were over 10000 nM, over 625 and 16 nM.
For `CC(C)Nc1c(C(=O)NCCN2CCOCC2)cnn2cc(-c3ccncc3F)nc12` [Example 106, 2-(3-fluoropyridin-4-yl)-8-(isopropylamino)-N-(2-morpholinoethyl)imidazo[1,2-b]pyridazine-7-carboxamide] the same measures were over 50000 nM, over 2273 and 22 nM.
For `CC(C)(O)[C@H](F)CNC(=O)c1cnc2cc(-c3cccnc3)nn2c1N[C@H]1CCN(c2cnc(F)nc2)C1` [Example 138, N—((R)-2-fluoro-3-hydroxy-3-methylbutyl)-7-(((S)-1-(2-fluoropyrimidin-5-yl)pyrrolidin-3-yl)amino)-2-(pyridin-3-yl) pyrazolo[1,5-a]pyrimidine-6-carboxamide] the same measures were over 10000 nM, over 16 and 640 nM.
Consider `CC(C)Nc1c(C(=O)NC[C@@H](F)C(C)(C)O)cnc2cc(-c3cncnc3)nn12` [Example 127, (R)—N-(2-fluoro-3-hydroxy-3-methylbutyl)-7-(isopropylamino)-2-(pyrimidin-5-yl)pyrazolo[1,5-a]pyrimidine-6-carboxamide], for which the half-maximal inhibitory concentration (IC50) in test [1] was over 10000 nM; in test [2], 170 nM. Also, in test [1], the “Ratio of JAK3 IC50 to IRAK4 IC50” value is recorded as over 59.
Consider `Cc1ccc(-c2cc3ncc(C(=O)NC[C@@H](F)C(C)(C)O)c(NC(C)C)n3n2)cn1` [Example 131, (R)—N-(2-fluoro-3-hydroxy-3-methylbutyl)-7-(isopropylamino)-2-(6-methylpyridin-3-yl)pyrazolo[1,5-a]pyrimidine-6-carboxamide], for which, in test [1], the IC50 is over 50000 nM and the “Ratio of JAK3 IC50 to IRAK4 IC50” value is listed as over 2500. Moreover, in test [2], the IC50 was found to be 20 nM.
On to `CC(=O)N[C@H]1CC[C@H](NC(=O)c2cnn3cc(-c4cnc(F)cc4C)cc3c2NC(C)C)CC1` [Example 75, N-((1r,4r)-4-acetamidocyclohexyl)-6-(6-fluoro-4-methylpyridin-3-yl)-4-(isopropylamino)pyrrolo[1,2-b]pyridazine-3-carboxamide], for which, in test [1], the IC50 was about 22000 nM and the “Ratio of JAK3 IC50 to IRAK4 IC50” value is on record as about 3793. For the same compound, in test [2], the 50% inhibitory concentration (IC50) amounted to 5.8 nM.
The like results for `CC(C)Nc1c(C(=O)NC[C@@H](F)C(C)(C)O)cnn2cc(-c3cccnc3F)cc12` [Example 7, (R)—N-(2-fluoro-3-hydroxy-3-methylbutyl)-6-(2-fluoropyridin-3-yl)-4-(isopropylamino)pyrrolo[1,2-b]pyridazine-3-carboxamide] were, in that order, over 10000 nM, over 1563 and 6.4 nM.
For the compound `CNC(=O)[C@H]1CC[C@H](NC(=O)c2cnn3cc(-c4ccc(C#N)nc4)cc3c2NC(C)C)CC1` [Example 94, 6-(6-cyanopyridin-3-yl)-4-(isopropylamino)-N-((1r,4r)-4-(methylcarbamoyl)cyclohexyl) pyrrolo[1,2-b]pyridazine-3-carboxamide], the IC50 in test [2] amounted to 14 nM.
In the case of `CC(C)(O)[C@H](F)CNC(=O)c1cnn2cc(-c3ccccc3)cc2c1NC1CCCC1` [Example 29, (R)-4-(cyclopentylamino)-N-(2-fluoro-3-hydroxy-3-methylbutyl)-6-phenylpyrrolo[1,2-b] pyridazine-3-carboxamide], in test [2], the IC50 worked out at 180 nM.
The same measure, in the same setting: the same measure for `CNC(=O)[C@H]1CC[C@H](NC(=O)c2cnn3cc(-c4ccc(C(N)=O)nc4)cc3c2NC(C)C)CC1` [Example 95, 6-(6-carbamoylpyridin-3-yl)-4-(isopropylamino)-N-((1r,4r)-4-(methylcarbamoyl)cyclohexyl)pyrrolo[1,2-b]pyridazine-3-carboxamide]: 35 nM; for `CNC(=O)c1cnc2cc(-c3ccccc3)nn2c1NC1CCCCC1` [Example 117, 7-(cyclohexylamino)-N-methyl-2-phenylpyrazolo[1,5-a]pyrimidine-6-carboxamide]: 5570 nM.
Regarding `CNC(=O)c1cnc2cc(-c3ccc4ncsc4c3)nn2c1NC(C)C` [Example 121, 2-(benzo[d]thiazol-6-yl)-7-(isopropylamino)-N-methylpyrazolo[1,5-a]pyrimidine-6-carboxamide], the half-maximal inhibitory concentration (IC50) in test [2] came to 590 nM.
On to `CNC(=O)c1cnc2cc(-c3ccc(C#N)cc3)nn2c1NC(C)C` [Example 118, 2-(4-cyanophenyl)-7-(isopropylamino)-N-methylpyrazolo[1,5-a] pyrimidine-6-carboxamide], for which the IC50 in test [2] was determined as 240 nM.
Regarding `CNC(=O)c1cnc2cc(-c3ccncc3)nn2c1NC(C)C` [Example 120, 7-(isopropylamino)-N-methyl-2-(pyridin-4-yl)pyrazolo[1,5-a]pyrimidine-6-carboxamide], in test [2], the IC50 was found to be 410 nM.
Still for that read-out and setting: the figure for `CNC(=O)c1cnc2cc(-c3ccnc(N4CCOCC4)c3)nn2c1NC(C)C` [Example 119, 7-(isopropylamino)-N-methyl-2-(2-morpholinopyridin-4-yl)pyrazolo[1,5-a]pyrimidine-6-carboxamide] is 2930 nM; for `CC(C)Nc1c(C(=O)NC[C@@H](F)C(C)(C)O)cnc2cc(-c3nccs3)nn12` [Example 158, (R)—N-(2-fluoro-3-hydroxy-3-methylbutyl)-7-(isopropylamino)-2-(thiazol-2-yl)pyrazolo[1,5-a]pyrimidine-6-carboxamide] it is 20 nM; for `CNC(=O)c1cnc2cc(-c3ccccc3)nn2c1N[C@H](CO)Cc1ccccc1` [Example 116, (S)-7-((1-hydroxy-3-phenylpropan-2-yl)amino)-N-methyl-2-phenylpyrazolo[1,5-a]pyrimidine-6-carboxamide] it is 1620 nM.
The same measure, in the same setting: the figure for `CC(C)Nc1c(C(=O)NC[C@@H](F)C(C)(C)O)cnn2cc(-c3nccs3)cc12` [Example 17, (R)—N-(2-fluoro-3-hydroxy-3-methylbutyl)-4-(isopropylamino)-6-(thiazol-2-yl)pyrrolo[1,2-b]pyridazine-3-carboxamide] is 6.3 nM.
